Measurements from ChEMBL document CHEMBL2380227, “Ginkgetin induces apoptosis via activation of caspase and inhibition of survival genes in PC-3 prostate cancer cells” (Bioorg Med Chem Lett, 2013).
Activity calls are given as the source filed them.

How the values were obtained:
PC-3 [1] = assay: Induction of apoptosis in human PC3 cells assessed as increase in PARP cleavage at 30 uM after 24 hrs by Western blotting in presence of Z-DEVD-FMK; assay type: functional, cell-based
PC-3 [2] = assay: Induction of apoptosis in human PC3 cells assessed as increase in caspase-3 cleavage at 30 uM after 24 hrs by Western blotting in presence of Z-DEVD-FMK; assay type: functional, cell-based
PC-3 [3] = assay: Cell cycle arrest in human PC3 cells assessed as sub-G1 accumulation at 30 uM after 24 hrs by propidium iodide staining-based flow cytometry in presence of Z-DEVD-FMK; assay type: functional
PC-3 [4] = assay: Induction of apoptosis in human PC3 cells assessed as supression of Cyclin-D1 mRNA expression at 15 to 30 uM after 24 hrs by RT-PCR analysis; assay type: functional, cell-based
PC-3 [5] = assay: Induction of apoptosis in human PC3 cells assessed as supression of survivin mRNA expression at 15 to 30 uM after 24 hrs by RT-PCR analysis; assay type: functional, cell-based
PC-3 [6] = assay: Induction of apoptosis in human PC3 cells assessed as supression of Bcl-XL mRNA expression at 15 to 30 uM after 24 hrs by RT-PCR analysis; assay type: functional, cell-based
PC-3 [7] = assay: Induction of apoptosis in human PC3 cells assessed as supression of Bcl-2 mRNA expression at 15 to 30 uM after 24 hrs by RT-PCR analysis; assay type: functional, cell-based
PC-3 [8] = assay: Induction of apoptosis in human PC3 cells assessed as supression of Cyclin-D1 expression at 15 to 30 uM after 24 hrs by Western blotting; assay type: functional, cell-based
PC-3 [9] = assay: Induction of apoptosis in human PC3 cells assessed as supression of survivin expression at 15 to 30 uM after 24 hrs by Western blotting; assay type: functional, cell-based
PC-3 [10] = assay: Induction of apoptosis in human PC3 cells assessed as supression of Bcl-XL expression at 15 to 30 uM after 24 hrs by Western blotting; assay type: functional, cell-based
PC-3 [11] = assay: Induction of apoptosis in human PC3 cells assessed as supression of Bcl-2 expression at 15 to 30 uM after 24 hrs by Western blotting; assay type: functional, cell-based
PC-3 [12] = assay: Induction of apoptosis in human PC3 cells assessed as increase in caspase-3 cleavage at 15 to 30 uM after 24 hrs by immunofluorescence assay relative to control; assay type: functional, cell-based
PC-3 [13] = assay: Induction of apoptosis in human PC3 cells assessed as increase in PARP cleavage at 15 to 30 uM after 24 hrs by Western blotting; assay type: functional, cell-based
PC-3 [14] = assay: Induction of apoptosis in human PC3 cells assessed as increase in caspase-3 cleavage at 15 to 30 uM after 24 hrs by Western blotting; assay type: functional, cell-based
PC-3 [15] = assay: Cell cycle arrest in human PC3 cells assessed as sub-G1 accumulation after 24 hrs by propidium iodide staining-based flow cytometry; assay type: functional
PC-3 [16] = assay: Induction of apoptosis in human PC3 cells assessed as cell shrinkage at 15 to 30 uM after 24 hrs by inverted microscopy; assay type: functional, cell-based
PC-3 [17] = assay: Induction of apoptosis in human PC3 cells assessed as apoptotic bodies at 15 to 30 uM after 24 hrs by inverted microscopy; assay type: functional, cell-based
PC-3 [18] = assay: Cytotoxicity against human PC3 cells after 24 hrs by MTT assay; assay type: functional, cell-based

Measured: Activity

COc1cc(O)c2c(=O)cc(-c3ccc(OC)c(-c4c(O)cc(O)c5c(=O)cc(-c6ccc(O)cc6)oc45)c3)oc2c1
active: PC-3 [1] | PC-3 [2] | PC-3 [3] | PC-3 [4] | PC-3 [5] | PC-3 [6] | PC-3 [7] | PC-3 [8] | PC-3 [9] | PC-3 [10] | PC-3 [11] | PC-3 [12] | PC-3 [13] | PC-3 [14] | PC-3 [15] Dose-dependent effect | PC-3 [16] | PC-3 [17] | PC-3 [18] Dose-dependent effect
